{
  "source": "patent US20120016019A1",
  "about": "“PHARMACEUTICAL COMPOSITION FOR TREATING OR PREVENTING CANCER” (priority 2010, published 2012)",
  "key": {"RKO": {"system": "RKO", "assay": "Cell counts, RKO", "format": "cell-based", "protocol": "(§1) As a result, LC-50 curves were generated in the 1st week.\n(§2) In the 2nd plate, 7 d of the 1st week (LC-50) is the same as 0 h of the 2nd week (recovery).\n(§3) At 0 h of the 2nd week, medium was exchanged with untreated medium for the remainder of the experiment. The untreated controls were not measured in the 2nd week (recovery) due to overconfluence by the end of the 1st week. As a result, Recovery curves were generated in the 2nd week."}, "HeLa": {"system": "HeLa", "assay": "Cell counts, HeLa", "format": "cell-based", "protocol": "as §1, §2, §3"}},
  "note": "Where “and” joins values, the source holds several entries; their conditions need not be identical. Equal values may be shown once.",
  "data": [
    {"smiles": "CC(=O)O[C@H]1C(=O)[C@@]2(C)[C@H]([C@H](OC(=O)c3ccccc3)[C@]3(O)C[C@H](OC(=O)[C@H](O)[C@@H](NC(=O)c4ccccc4)c4ccccc4)C(C)=C1C3(C)C)[C@]1(OC(C)=O)CO[C@@H]1C[C@@H]2O", "note": "[Taxol]", "values": [
      {"measurement": "cell counts", "setting": "RKO; 1st week (LC50), 0 h", "value": "48000 and 49000 and 54000"},
      {"measurement": "cell counts, Mean value", "setting": "RKO; 1st week (LC50), 0 h", "value": 50333},
      {"measurement": "cell counts", "setting": "RKO; 1st week (LC50), 24 h", "value": "101600 and 98000 and 99800"},
      {"measurement": "cell counts, Mean value", "setting": "RKO; 1st week (LC50), 24 h", "value": 99800},
      {"measurement": "cell counts, Mean value", "setting": "RKO; 1st week (LC50), 48 h", "value": 78733},
      {"measurement": "cell counts", "setting": "RKO; 1st week (LC50), 4 d", "value": 36000},
      {"measurement": "cell counts, Mean value", "setting": "RKO; 1st week (LC50), 4 d", "value": 36000},
      {"measurement": "cell counts", "setting": "RKO; 1st week (LC50), 7 d", "value": "38600 and 25400 and 22800"},
      {"measurement": "cell counts, Mean value", "setting": "RKO; 1st week (LC50), 7 d", "value": 28933},
      {"measurement": "cell counts", "setting": "RKO; 2nd week (recovery), 0 h", "value": "57000 and 58000 and 53000"},
      {"measurement": "cell counts, Mean value", "setting": "RKO; 2nd week (recovery), 0 h", "value": 56000},
      {"measurement": "cell counts", "setting": "RKO; 2nd week (recovery), 24 h", "value": "26000 and 31000 and 39000"},
      {"measurement": "cell counts, Mean value", "setting": "RKO; 2nd week (recovery), 24 h", "value": 32000},
      {"measurement": "cell counts", "setting": "RKO; 2nd week (recovery), 48 h", "value": "35000 and 38000 and 30000"},
      {"measurement": "cell counts, Mean value", "setting": "RKO; 2nd week (recovery), 48 h", "value": 34333},
      {"measurement": "cell counts", "setting": "RKO; 2nd week (recovery), 4 d", "value": "39000 and 31000 and 26000"},
      {"measurement": "cell counts, Mean value", "setting": "RKO; 2nd week (recovery), 4 d", "value": 32000},
      {"measurement": "cell counts, Mean value", "setting": "RKO; 2nd week (recovery), 7 d", "value": 35000},
      {"measurement": "cell counts", "setting": "HeLa; 1st week (LC50), 0 h", "value": "158000 and 136000 and 184000"},
      {"measurement": "cell counts, Mean value", "setting": "HeLa; 1st week (LC50), 0 h", "value": 159333},
      {"measurement": "cell counts", "setting": "HeLa; 1st week (LC50), 24 h", "value": "158000 and 276000 and 219000"},
      {"measurement": "cell counts, Mean value", "setting": "HeLa; 1st week (LC50), 24 h", "value": 217667},
      {"measurement": "cell counts", "setting": "HeLa; 1st week (LC50), 48 h", "value": "105000 and 70000 and 79000"},
      {"measurement": "cell counts, Mean value", "setting": "HeLa; 1st week (LC50), 48 h", "value": 84667},
      {"measurement": "cell counts", "setting": "HeLa; 1st week (LC50), 4 d", "value": "26000 and 39000 and 31000"},
      {"measurement": "cell counts, Mean value", "setting": "HeLa; 1st week (LC50), 4 d", "value": 32000},
      {"measurement": "cell counts", "setting": "HeLa; 1st week (LC50), 7 d", "value": "36000 and 34000 and 32000"},
      {"measurement": "cell counts, Mean value", "setting": "HeLa; 1st week (LC50), 7 d", "value": 34000},
      {"measurement": "cell counts", "setting": "HeLa; 2nd week (recovery), 0 h", "value": "31000 and 34000 and 35000"},
      {"measurement": "cell counts, Mean value", "setting": "HeLa; 2nd week (recovery), 0 h", "value": 33333},
      {"measurement": "cell counts, Mean value", "setting": "HeLa; 2nd week (recovery), 24 h", "value": 23333},
      {"measurement": "cell counts", "setting": "HeLa; 2nd week (recovery), 48 h", "value": "12000 and 23500 and 22000"},
      {"measurement": "cell counts, Mean value", "setting": "HeLa; 2nd week (recovery), 48 h", "value": 19167},
      {"measurement": "cell counts", "setting": "HeLa; 2nd week (recovery), 4 d", "value": "22000 and 18000 and 13000"},
      {"measurement": "cell counts, Mean value", "setting": "HeLa; 2nd week (recovery), 4 d", "value": 17667},
      {"measurement": "cell counts", "setting": "HeLa; 2nd week (recovery), 7 d", "value": 18000},
      {"measurement": "cell counts, Mean value", "setting": "HeLa; 2nd week (recovery), 7 d", "value": 18000}
    ]}
  ]
}
